Results: patent publication US20260325500A1, “METHODS AND COMPOSITIONS FOR TREATING ACUTE STRESS DISORDER” (BioXcel Therapeutics, Inc., priority 2022, published 2026)
Entries after “also recorded” stand apart in the source; their conditions may differ. Where a name gives a salt, the structure may show the parent alone.

Tests used:
[1] = system: motor activity (locomotion) and sedation behavior of male Swiss albino mice; assay: Open field test, motor activity (locomotion) and sedation (Example 7); type: in vivo; conditions: i.p.
Description: Rationale: The spontaneous locomotor activity in terms of total distance traveled is measured in open field test. Comparatively lower distance traveled would indicate either less motor activity or sedation.
Animal groups: Swiss albino male mice (6-7 weeks old; 25-40 g weight) were distributed in 10 different experimental groups with 12 […] per group as illustrated in Table
Study drugs: The test substances (Dexmedetomidine hydrochloride and latrepirdine dihydrochloride hydrate) were dissolved in 0.9% normal saline which served as the vehicle.
Study design and dosing: Mice were brought to the laboratory and allowed to acclimatize to the environment for at least 7 days. The open field test was done in lighting conditions of 40 lux light. The mice were dosed as per the grouping in Table 10. After a post dose interval of 60 minutes, 4 mice from a group were placed in the open field and the movement was tracked for a period of 30 minutes. Once the trial was over the mice were removed from the open field and the arena was cleaned. Following this, next set of 4 mice were placed in the arena and tracked.
Statistical analysis: The distance travelled for a period of 30 minutes was analyzed in bins of 5 minutes and was compared with that of the vehicle group using one-way ANOVA followed by Dunnett's test. All statistical analyses were performed using Graph pad prism software package (Version 7 or Higher) and p value below 0.05 was considered as significant.

[2] = system: rat forced swim test model (depressive-like behavior); assay: Forced swim test in dark phase (Example 4); type: in vivo, Sprague Dawley rats; conditions: i.m.
Description: Animal groups: Male Sprague Dawley (SD) rats (8-10 weeks old) were grouped housed 2 per cage in standard animal cages with facilities for pelleted food and drinking water in polycarbonate bottle with stainless steel sipper tubes. During the experimental period, animals were housed in a single experimental room. Rats were distributed in 7 different experimental groups with 9-12 rats per group as illustrated in Table 8. Animals were distributed to different groups based on body weight data. Each experimental group was also coded so that the experimenter became unaware of the true experimental group at the time FST trial.
Animals were housed in an environment-controlled room at 22±3° C. and relative humidity of 30 to 70 percent. During the study, 12/12 light/dark cycles were maintained. Lights of the acclimatization area were switched off at 06:00 PM. All experiments were carried out at ambient temperature under dark phase of lighting (between 06:00 PM to 06:00 AM). Adequate fresh air supply of 12-15 air changes/hour was maintained in the experimental room. The maximum and minimum temperature and relative humidity in the experimental rooms was recorded once daily. The relative humidity in the experimental room was calculated daily from dry and wet bulb temperature recordings.
Swim 1 was carried out between 18:30 to 21:30.
Swim 2 was carried out between 19:30 to 21:30. Animals were administered test compounds from 18:30 onwards in staggered manner 60 minutes before FST 2.
Forced swim test was carried out in dark phase
On Day 1, animals were subjected to forced swim test training for 15 minutes (Swim 1) and on Day 2, Swim 2 was carried out post treatment.
On day 2 animals were dosed with respective treatment 60 min prior to performing FST.
Forced swim test (Swim 2) was scored manually with no video recording.
Forced swim test (FST), was used to study the depressive-like behavior in rodents. The test was carried out in transparent cylindrical glass containers measuring 46 cm in height and 20 cm in diameter.
There were 2 swim sessions, 24 h apart. The first session, Swim 1 was the pretest/training stage (15 min) and the second session, Swim 2, was the test stage (8 min).
In swim 2, first 1-minute data was excluded from analysis and rest 7 minutes data was considered. In 7 minutes, data, it was divided 5 minutes and 2 minute.
Twenty-four hours after the start of Swim 1, the test swim (Swim 2) was carried out.
Rat was placed in the water-filled cylinder for 8 min (Swim 2).
The duration of time spent immobile, swimming, and climbing was observed by an observer blind to the treatment group.
Immobility period: A rat was judged to be immobile when it remained floating in the water without struggling and was making only those movements necessary to keep its head above water.
Statistical analysis: One Way ANOVA, Dunnet's multiple comparison test was applied with respect to vehicle saline and Tukey's multiple comparison test was applied to compare the data in between the groups using GraphPad Prism version 9 software.

[3] = system: Yohimbine-induced noradrenergic mediated hyperarousal in Wistar rats; assay: Elevated plus maze, yohimbine-induced noradrenergic mediated hyperarousal (Example 2); type: in vivo; conditions: 10 mg/kg, i.m., 60 min prior; yohimbine 2.5 mg/kg i.p.
Description: Background: Yohimbine is an alpha 2-adrenergic receptor antagonist reported to trigger panic attacks in healthy volunteers and to exacerbate symptoms in patients with panic disorder (Charney et al., 1992 Acta Psychiatr Scand., Vol. 86 (4): 273-282). Peripheral administration of Yohimbine causes noradrenergic mediated hyperarousal in rats as assessed by the EPM paradigm.
Rationale: The drug yohimbine is a natural product used to test a specific pathway, noradrenergic-mediated hyper-arousal. It is well established that yohimbine is an alpha2-adrenergic receptor antagonist and activates the locus coeruleus (LC) and increases noradrenergic signaling (the opposite of alpha2-adrenergic agonists like dexmedetomidine and clonidine). Increased LC activity and noradrenergic signaling makes animals anxious and agitated which can be measured by using the elevated plus maze. In the elevated plus maze, rodents were in the closed arms and explored the open arms depending on their anxiety and agitation (rats and mice normally explore their environments extensively when calm). […] This behavior is correlated to increased level of anxiety caused by noradrenergic mediated hyperarousal.
Animal groups: Male: Wistar rats were used in this study and were randomly divided to different experimental groups (12 animals per group).
Study drugs: Four test drugs with different mechanisms of action linked to agitation were chosen to find drugs that are effective in reducing yohimbine-induced agitation: (1) Fluvoxamine (selective serotonin reuptake inhibitor) (2) Dextromethorphan (modulator of NMDA signals) (3) Diazepam (modulator of gamma-aminobutyric acid (GABA) as a positive control) and (4) Latrepirdine (complex pharmacology).
The test drugs were procured from Sigma or Tocris. dextromethorphan from Sigma Aldrich, Cat No. D9684; latrepirdine from Sigma Aldrich, Cat No. D6196 or Tocris Cat No. 3201 diazepam and fluvoxamine Sigma Aldrich, Cat No. F2802 or Tocris, Cat No. 1033. All these test drugs were formulated in sufficient quantity in 0.9% saline except for fluvoxamine, which was formulated in 30% ethanol in 0.9% saline.
Apparatus: Elevated Plus Maze (EPM) was used (FIG. 1). The maze consisted of two closed arms and two open arms forming a cross, with a square center platform. All visible surfaces were made of black acrylic. Each arm of the maze was placed on a support column above the floor. Antistatic black vinyl curtains used for surrounding the EPM to make an enclosure.
Study design and dosing: Yohimbine was administered by intraperitoneal injection (i.p.) at a dose of 2.5 mg/kg (30 minutes prior to study) to induce agitation and the effects were assessed 30 minutes after yohimbine injection by measuring the number of open arm entries and exploration time in the EPM. The test drugs fluvoxamine, dextromethorphan and latrepirdine dihydrochloride hydrate were administered through intramuscular route and, diazepam through intraperitoneal route into the hindleg thigh muscle of rats (60 minutes prior to study; 30 minutes prior to yohimbine administration). Diazepam was injected 30 minutes intraperitonially prior to the assay i.e. along with yohimbine administration. The study design is illustrated in FIG. 2 and table 5.
After the test drug administration, the rat was placed on the platform opposite a closed arm. The number of entries and the time spent in each arm were recorded during a 5 min period. The animal was considered as entered in arm when it placed its four paws into the arm.
Statistical analysis: Analysis of variance (ANOVA) was performed on the result data. Fisher's PLSD was used for pairwise comparisons and p value≤0.05 was considered significant.

Compound	distance traveled ([1]; 4 μg/kg, 10 μg/kg and 20 μg/kg)	distance traveled ([1]; 30 μg/kg)	climbing time ([2]; 1 μg/kg, versus vehicle saline)	increase in swimming time ([2]; 1 μg/kg, versus vehicle saline)	swimming time ([2]; 5 μg/kg)	immobility time ([2]; 1 and 5 μg/kg, versus vehicle saline)	reduction of noradrenergic mediated hyperarousal (open arm entries and time spent) [3]
Cc1cccc([C@H](C)c2cnc[nH]2)c1C [dexmedetomidine hydrochloride]	did not show any significant reduction in distance traveled	significant reduction in distance traveled	significantly increased	~ 1.6%	significantly increased	significantly decreased	
COCCCC/C(=N\OCCN)c1ccc(C(F)(F)F)cc1 [fluvoxamine]							ineffective; also recorded: no effect
COc1ccc2c(c1)[C@]13CCCC[C@@H]1[C@H](C2)N(C)CC3 [dextromethorphan]							ineffective; also recorded: no effect
